Data taken from article PMC7812667 (ACS Medicinal Chemistry Letters, 2020).

Assay: LogD shake-flask, octanol and water
Type: physicochemical
Conditions: pH 7.4

SMILES: c1ccc(Cc2c[nH]c3ncc(-c4cnn(C5CCNCC5)c4)cc23)cc1 [Compound 6]
- reduction in logD (versus compound 5): over 1.5 log units
